From US20080293699A1, “Inhibitors of thapsigargin-induced cell death” (priority 2007, published 2008)
“Also recorded” adds a separate entry of the source.

How the values were obtained:
[1] = system: ASK1 (ser 967, ser 83, thr 845); assay: Phosphorylation of ASK1 sites in ASK1-transfected 293T cells (immunoblotting); format: cell-based; settings: for Phosphorylation of ASK1 at ser 83 and thr 845 / Phosphorylation of ASK1 at ser 967: ASK1-transfected 293T; for Phosphorylation of ASK1 at ser 83 and thr 845: up to 100 μM; for Phosphorylation of ASK1 at ser 967: 100 μM compound, two hours
Experimental: (§1) Phosphorylation of ASK1 at various sites was inspected. 293T cells were transfected with pcDNA-ASK1-HA. One day later, cells were incubated with DMSO (0.4%) or 100 μM compound 6239507 (#1) for two hours. Cell extracts were prepared using lysis buffer and were subjected to immunoblotting using anti-phospho ASK1 antibodies or anti HA antibody as indicated (A). The relative density of each phosphorylated ASK band was calculated by imageJ software (B). In (C), compounds from (A) were compared in activity against thapsigargin-induced cell death. […] (D) 293T cells were transfected with pcDNA-ASK1-HA and pEBG-GST-14-3-3. One day later cells were incubated with DMSO (0.4%) or 100 μM of the indicated compound for two hours. Then cells were treated with thapsigargin (20 μM) for the indicated time. Cell extracts were prepared using lysis buffer, and 14-3-3 proteins were immunoprecipitated with […] sepharose beads. ASK1 protein binding with 14-3-3 was visualized by immunoblotting using anti-HA antibody. Anti-phospho ASK1 (ser967) antibody was used to detect phosphorylation of ASK1 at each time point.
Thus, while not directly inhibiting ASK1 kinase activity, these events are predicted to reduce ASK1 in vivo kinase activity. It is possible that compound 5962123 inhibits a protein phosphatase that regulates phosphorylation of Ser967.
Suppression of thapsigargin-induced phosphorylation of p38MAPK was also measured by a quantitative ELISA-methods, with IC50 for p38MAPK phosphorylation estimated at <5 μM. In contrast, thapsigargin-induced expression of CHOP, expression of ATF4, proteolytic processing of ATF6, phosphorylation of eIF2a (Ser 51), auto-phosphorylation of Ire1a or auto-phosphorylation of ASK1 were not inhibited directly by CID-2878746 at concentrations up to 50 μM tested by in vitro kinase assay using p32-γ-ATP substrate. […] Thapsigargin-induced reductions in phosphorylation of ASK1 at the serine 967 site in ASK1 transfected 293T cells are inhibited by compound 5962123 at concentrations of 50-100 μM, as determined by immunoblotting using anti-phospho-specific (ser 967) antibody, but thapsigargin-induced changes in phosphorylation of ASK1 at ser 83 and thr 845 are not modulated by compound 5962123 at concentrations as high as 100 μM in ASK1-transfected HEK293T cells.
Experiments were also performed to determine whether compound 6239507 enhances phosphorylation of ASK1 at Ser 967 before and after ER stress induction (i.e., thapsigargin treatment). 293T cells were transfected with pcDNA-ASK1-HA. One day later, cells were incubated with DMSO (0.4%) or 100 μM compound 6239507 (#1) for two hours. Then cells were treated with thapsigargin (20 μM) for the indicated times. Cell extracts were prepared by lysis buffer and were subjected to immunoblotting with anti-phospho ASK1 Ser967 antibody or anti HA antibody. The relative density of phosphor ser967 bands were calculated by imageJ software (mean ±SD).
The ser 967 site of ASK1 is known to down-regulate ASK1 activity by phosphorylation (Goldman et al., J. Biol. Chem. 279:10442-10449, 2004) via 14-3-3 binding. […] 293T cells were transfected with pcDNA-ASK1-HA. One day later, cells were incubated with DMSO (0.4%) or 100 μM compound 6239507 (#1) for two hours. Cell extracts were prepared using lysis buffer and were subjected to immunoblotting using anti-phospho ASK1 antibodies or anti HA antibody as indicated. The relative density of each phosphorylated ASK band was calculated by imageJ software. The compounds were compared in activity against thapsigargin-induced cell death. 293T cells were transfected with pcDNA-ASK1-HA and pEBG-GST-14-3-3. One day later cells were incubated with DMSO (0.4%) or 100 μM of the indicated compound for two hours. Then cells were treated with thapsigargin (20 μM) for the indicated time. Cell extracts were prepared using lysis buffer, and 14-3-3 proteins were immunoprecipitated with […] sepharose beads. […]

[2] = system: ASK1 binding to 14-3-3 protein; assay: Co-immunoprecipitation of ASK1 with 14-3-3 in transfected 293T cells; format: cell-based; settings: thapsigargin-stimulated transfected 293T; 100 μM where stated
Experimental: as §1, with “point. […]” for “point.”
The ser 967 site of ASK1 is known to down-regulate ASK1 activity by phosphorylation (Goldman et al., J. Biol. Chem. 279:10442-10449, 2004) via 14-3-3 binding. […] The relative density of each phosphorylated ASK band was calculated by imageJ software. […]

Row | SMILES | Phosphorylation of ASK1 at ser 83 and thr 845 [1] | Thapsigargin-stimulated dephosphorylation of ASK1 at serine 967 ([1]; ASK1-transfected HEK293T, 50 μM, 50-100 μM) | Binding of ASK1 to 14-3-3 protein [2] | Phosphorylation of ASK1 at ser 967 [1] | Phosphorylation of ASK1 at ser 967 ([1]; listed as 1)
1 | CCN(CC)c1ccc(C2Nc3ccccc3NC3=C2C(=O)CC(c2ccccc2)C3)cc1 (stereo not drawn) [Compound 5962123, 6-(4-diethylaminophenyl)-9-phenyl-5,6,8,9,10,11-hexahydrobenzo[c][1,5]benzodiazepin-7-one] | not modulated | inhibited | increased 14-3-3 binding to ASK1; also recorded: increases binding |  | 
2 | COc1ccc(C2CC(=O)C3=C(C2)Nc2ccccc2NC3c2ccccc2C(F)(F)F)cc1OC (stereo not drawn) [Compound 6237735] | not ser 83 or thr 845 |  |  | enhanced phosphorylation of ser 967 only | 
3 | COc1ccc(C2CC(=O)C3=C(C2)Nc2ccccc2NC3c2cccc(Oc3ccccc3)c2)cc1OC (stereo not drawn) [Compound 6239507] | not ser 83 or thr 845 |  | inhibits dissociation of 14-3-3 from ASK1 | enhance phosphorylation; also recorded: intensified | enhanced phosphorylation of ser 967 only
